Where “and” joins values, the source holds several entries; their conditions need not be identical. Identical values can stand only once. Like-named read-outs stand apart in the source and are kept apart here.
Tests used:
[1] = system: Plasmodium falciparum (Pf) (intraerythrocytic forms, NF54 strain); assay: In vitro antiplasmodial activity; format: cell-based; settings: for SI Pf (selectivity index): cytotoxicity L6 vs Pf
Method: (§1) After isolation, all alkaloids were tested in vitro for antiplasmodial and antitrypanosomal activity against Plasmodium falciparum (Pf) and Trypanosoma brucei rhodesiense (Tbr). Furthermore, to assess their selectivity against the parasites, cytotoxicity against L6 rat skeletal myoblasts, as mammalian control cells, was tested (Table 4).
(§2) In vitro assays for the bioactivity of the isolated Buxus-alkaloids against Tbr (bloodstream trypomastigotes, STIB 900 strain), Trypanosoma cruzi (Tc) (amastigotes, Tulahuen C4 strain), Leishmania donovani (Ldo) (amastigotes, MHOM-ET-67/L82 strain) and Pf (intraerythrocytic forms, NF54 strain), and cytotoxicity tests against mammalian cells (L6-cell line from rat-skeletal myoblasts), were performed at the Swiss Tropical and Public Health Institute (Swiss TPH, Basel, Switzerland) according to established standard protocols.

[2] = Cytotoxicity against mammalian control cells; format: cell-based, rat; settings: rat
Method: as §1, §2

[3] = system: Trypanosoma brucei rhodesiense (Tbr) (bloodstream trypomastigotes, STIB 900 strain); assay: In vitro antitrypanosomal activity; format: cell-based; settings: for SI Tbr (selectivity index): cytotoxicity L6 vs Tbr
Method: as §1
as §2, with “protocols. […] Such a pattern of activity was also observed in other studies.” for “protocols.”

[4] = system: L6 rat skeletal myoblasts; assay: Cytotoxicity against mammalian control cells; format: cell-based; settings: L6 cell line; for Cytotox. IC50: mean of n = 2 (fluctuation range) or * n = 3 (SD); for IC50: read-out: Cytotox. IC50 (in parentheses) (converted)
Method: as §1, §2

[5] = NF54 strain, read-out: Pf IC50 (in parentheses) (converted)
[6] = Plasmodium falciparum, NF54, NF54 strain, mean of n = 2 (fluctuation range) or * n = 3 (SD), read-out: Pf IC50
[7] = Plasmodium falciparum, NF54, NF54 strain, read-out: Pf IC50 (in parentheses) (converted)
[8] = Trypanosoma brucei, STIB 900 strain, mean of n = 2 (fluctuation range) or * n = 3 (SD), read-out: Tbr IC50
[9] = Trypanosoma brucei, STIB 900 strain, read-out: Tbr IC50 (in parentheses) (converted)
[10] = NF54 strain, mean of n = 2 (fluctuation range) or * n = 3 (SD)
[11] = STIB 900 strain, mean of n = 2 (fluctuation range) or * n = 3 (SD)
[12] = STIB 900 strain, read-out: Tbr IC50 (in parentheses) (converted)
[13] = L6 rat skeletal myoblast cells, L6 cell line, mean of n = 2 (fluctuation range) or * n = 3 (SD), read-out: Cytotox. IC50
[14] = L6 rat skeletal myoblast cells, L6 cell line, read-out: Cytotox. IC50 (in parentheses) (converted)

IC50 [1, 5] [µM] | Pf IC50 [1, 10] [µg/mL] | Tbr IC50 [3, 11] [µg/mL] | IC50 [3, 12] [µM] | Compound | IC50 [1, 6] [µg/mL] | IC50 [1, 7] [µM] | SI Pf (selectivity index) [1] | IC50 [3, 8] [µg/mL] | IC50 [3, 9] [µM] | SI Tbr (selectivity index) [3] | Cytotox. IC50 [4] [µg/mL] | IC50 [4] [µM] | also measured
– | – | – | – | CCN(CC)CCCC(C)Nc1ccnc2cc(Cl)ccc12 (stereo not shown) [Chloroquine, reference compound] | – | – | – | – | – | – | – | – | IC50 ([1]; Plasmodium falciparum, NF54, read-out: Pf IC50): 0.006 ± 0.001 µg/mL; IC50 ([1]; Plasmodium falciparum, NF54, read-out: Pf IC50 (in parentheses)): 0.019 µM
1.76 | 0.78 ± 0.08 | 1.04 ± 0.27 | 2.34 | CC(C1C(O)CC2(C)C3C=CC4C(C)(CO)C(N(C)C)CCC45CC35CCC12C)N(C)C (stereo not shown) [Compound 5, Cyclomicrophylline-A] | – | – | – | – | – | – | 44 ± 2.3 | 99 | –
0.7 | 0.4 ± 0.02 | 0.69 ± 0.06 | 1.3 | CC(C1C(OC(=O)c2ccccc2)CC2(C)C3C=CC4C(C)(CO)C(N(C)C)CCC45CC35CCC12C)N(C)C (stereo not shown) [Compound 6, Cyclomicrophyllidine-A] | – | – | – | – | – | – | 9.3 ± 3 | 17 | –
– | – | – | – | CN[C@@H](C)[C@H]1[C@H](OC(=O)c2ccccc2)C[C@@]2(C)[C@@H]3C=C[C@H]4[C@](C)(CO)[C@@H](N(C)C)CC[C@@]45C[C@@]35CC[C@]12C [Compound 7, Cyclomicrophyllidine-B] | 0.11 ± 0.01 | 0.2 | 145 | 1.9 ± 0.3 | 3.6 | 8 | – | – | IC50 [2]: 16 µg/mL and 29.9 µM
– | – | – | – | CN[C@@H](C)[C@H]1CC[C@@]2(C)[C@@H]3CC[C@H]4C(C)(C)[C@@H](NC)[C@H](OC(=O)c5ccccc5)C[C@@]45C[C@@]35CC[C@]12C [Compound 8, O-benzoyl-cycloprotobuxoline-D] | 0.09 ± 0.03 | 0.18 | 74 | 0.55 ± 0.18 | 1.1 | 12 | – | – | IC50 [2]: 6.65 µg/mL and 13.1 µM
3.8 | 2.15 ± 0.29 | 1.35 ± 0.45 | 2.4 | CC(=O)OC[C@]1(C)[C@@H](NC(=O)c2ccccc2)CC[C@]23C[C@]24C(=O)C[C@]2(C)[C@@H]([C@H](C)N(C)C)CC[C@@]2(C)[C@@H]4CC[C@@H]13 [Compound 9, N-benzoyl-O-acetyl-cycloxo-buxoline-F] | – | – | – | – | – | – | 41 ± 0.7 | 73 | –
– | – | – | – | C[C@@H]([C@H]1[C@H](O)C[C@@]2(C)[C@@H]3CC[C@@H]4[C@@]5(CCC(=O)[C@@]4(C)CO)C[C@@]35CC[C@]12C)N(C)C [Compound 11, 29-hydroxy-cyclomikuranine-L] | 0.9 ± 0.13 | 2.2 | 49 | 2.9 ± 1 | 7 | 15 | – | – | IC50 [2]: 44 µg/mL and 105 µM
3.5 | 1.4 ± 0.44 | 2.5 ± 0.1 | 6.3 | C[C@@H]([C@H]1[C@H](O)C[C@@]2(C)[C@@H]3CC[C@H]4C(C)(C)C(=O)C=C[C@@]45C[C@@]35CC[C@]12C)N(C)C [Compound 12, Nb-dimethylcycloxobuxoviricine] | – | – | – | – | – | – | 19 ± 1.2 | 47.6 | –
– | – | – | – | C=C1C2CC[C@@H]3[C@]4(CC[C@]5(C)[C@@H](C(C)=O)[C@H](O)C[C@@]35C)C[C@]24CC[C@@H]1NC (stereo partly shown) [Compound 17, Cyclomicrobuxinine] | 4.1 ± 0.8 | 10.9 | 7 | 48 ± 0.2 | 129 | 0.6 | – | – | IC50 [2]: 30.5 µg/mL and 82 µM
3.8 | 1.3 ± 0.35 | 2.2 ± 0.07 | 6.4 | C[C@@H]([C@H]1CC[C@H]2[C@@H]3CC=C4C[C@@H](O)CC[C@]4(C)[C@H]3CC[C@]12C)N(C)C [Compound 19, Irehine] | – | – | – | – | – | – | 13.4 ± 0.5 | 38.8 | –
4 | 1.6 ± 0.57 | 5.26 ± 0.3 | 13.2 | CC(=O)[C@H]1[C@H](O)C[C@@]2(C)[C@@H]3CC[C@@H]4C(=CC3=CC[C@]12C)CC[C@H](N(C)C)C4(C)C [Compound 20, 16-α-hydroxybuxaminone] | – | – | – | – | – | – | 45 ± 1 | 113 | –
7.3 | 3.1 ± 0.24 | 53 ± 1 | 124 | CC(=O)N[C@@H](C)[C@H]1CC[C@@]2(C)[C@@H]3CC[C@@H]4C(=CC3=CC[C@]12C)CC[C@H](N(C)C)C4(C)C [Compound 21, N20-acetylbuxamine-E] | – | – | – | – | – | – | 54.8 ± 1.1 | 129 | –
– | – | 3.4 ± 1 | – | CC(=O)O[C@@H]1C[C@@]2(C)[C@@H]3CC[C@@H]4C(=CC3=CC[C@]2(C)[C@H]1[C@H](C)NC(=O)c1ccccc1)CC[C@H](N(C)C)C4(C)C [Compound 22, N-benzoyl-O-acetylbuxodienine-E] | – | – | – | – | – | – | 8.5 ± 0.1 | 15.6 | –
– | – | – | – | CC(=O)O[C@@H]1C[C@@]2(C)[C@@H]3CC[C@@H]4C(=CC[C@H](N(C)C)C4(C)C)CC3=CC[C@]2(C)[C@H]1[C@H](C)NC(=O)c1ccccc1 [Compound 23, N-benzoyl-O-acetylbuxadine-E] | 4.2 ± 0.4 | 7.7 | 7 | 3.1 ± 0.6 | 5.7 | 9 | – | – | IC50 [2, 13]: 27.5 ± 16 µg/mL; IC50 [2, 14]: 50.4 µM
– | – | – | – | CN[C@H]1CC=C2CC3=CC[C@]4(C)[C@@H]([C@H](C)NC(C)=O)CC[C@@]4(C)[C@@H]3CC[C@H]2C1(C)C [Compound 24, N20-acetylbuxadine-G] | 2.3 ± 0.27 | 5.6 | 7 | 0.52 ± 0.27 | 1.3 | 33 | – | – | IC50 [2, 13]: 16.9 ± 1.1 µg/mL; IC50 [2, 14]: 41 µM
– | – | – | – | CN[C@H]1CC=C2CC3=CC[C@@]4(C)[C@@](C)(CC[C@]4(O)[C@H](C)O)[C@@H]3CC[C@H]2C1(C)C [Compound 25, 17,20-dihydroxybuxadine-M] | 3.6 ± 0.05 | 9.3 | 12 | 6.7 ± 0.49 | 17.3 | 7 | – | – | IC50 [2, 13]: 44.5 ± 5.5 µg/mL; IC50 [2, 14]: 115 µM
– | – | – | – | Nc1nc(N)nc(Nc2ccc([As]3SCC(CO)S3)cc2)n1 (stereo not shown) [Melarsoprol, reference compound] | – | – | – | – | – | – | – | – | IC50 ([3]; Trypanosoma brucei, read-out: Tbr IC50): 0.005 ± 0.001 µg/mL; IC50 ([3]; Trypanosoma brucei, read-out: Tbr IC50 (in parentheses)): 0.013 µM
– | – | – | – | COc1cc([C@@H]2c3cc4c(cc3[C@H](O)[C@H]3COC(=O)[C@H]23)OCO4)cc(OC)c1OC [Podophyllotoxin, reference compound] | – | – | – | – | – | – | – | – | IC50 ([2]; L6 cell line, mean of n = 2 (fluctuation range) or * n = 3 (SD), read-out: Cytotox. IC50): 0.006 ± 0.001 µg/mL

Compound | IC50 [1, 5] [µM] | Pf IC50 [1, 10] [µg/mL] | Tbr IC50 [3, 11] [µg/mL] | IC50 [3, 12] [µM] | IC50 [1, 6] [µg/mL] | IC50 [1, 7] [µM] | SI Pf (selectivity index) [1] | IC50 [3, 8] [µg/mL] | IC50 [3, 9] [µM] | SI Tbr (selectivity index) [3] | Cytotox. IC50 [4] [µg/mL] | IC50 [4] [µM] | also measured
C/C=C(\C)C(=O)O[C@@H]1C[C@@]2(C)[C@@H]3C=C[C@H]4[C@](C)(CO)[C@@H](N(C)C)CC[C@@]45C[C@@]35CC[C@]2(C)[C@H]1[C@H](C)NC [Compound 3, O-tigloylcyclomicrophylline-B] | 0.98 | – | – | – | 0.5 ± 0.06 | < 1 | 72 | 4.6 ± 0.005 | 9 | 8 | – | – | IC50 [2]: 35.8 µg/mL and 69.9 µM
C/C=C(\C)C(=O)O[C@@H]1C[C@@]2(C)[C@@H]3C=C[C@H]4[C@](C)(CO)[C@@H](N(C)C)CC[C@@]45C[C@@]35CC[C@]2(C)[C@H]1[C@H](C)N(C)C [Compound 4, O-tigloylcyclomicrophylline-A] | 0.7 | – | – | – | 0.35 ± 0.08 | < 1 | 34 | 1.5 ± 0.76 | 2.9 | 8 | – | – | IC50 [2]: 12 µg/mL and 22.8 µM
C=C1[C@@H](N(C)C)CC[C@]23C[C@]24CC[C@]2(C)[C@@H](C(C)=O)[C@H](O)C[C@@]2(C)[C@@H]4CC[C@@H]13 [Compound 18, Cyclomicrobuxine] | 6.8 | 2.6 ± 0.005 | 16.9 ± 2.3 | 44 | – | – | – | – | – | – | 26.8 ± 8.8 | 69.6 | –
